Results from ChEMBL document CHEMBL4419173, “Small-molecule inhibitors targeting g-protein-coupled rho guanine nucleotide exchange factors” (2014).
The source made the active and inactive calls. The rule behind the calls is not given here.

Experiments:
[1] = species on record: Mus musculus; assay: Inhibition of RhoGEF in mouse NIH/3T3 cells assessed as reduction in 10% calf serum-induced rhoA-mediated actin stress fiber formation at 10 uM by rhodamine-phalloidin staining based assay; assay type: cell-based
[2] = species on record: Mus musculus; assay: Inhibition of RhoGEF in mouse NIH/3T3 cells assessed as inhibition of 10% calf serum-induced RhoA-GTP formation by measuring reduction in RhoA-GTP level at 30 uM incubated for 24 hrs by densitometry relative to control; assay type: cell-based
[3] = species on record: Mus musculus; assay: Inhibition of RhoGEF in mouse NIH/3T3 cells assessed as inhibition of 10% calf serum-induced RhoA-GTP formation by measuring relative RhoA-GTP level at 15 uM in presence of 15 uM Rhosin/G04 incubated for 24 hrs by densitometry (reference value: 1); assay type: cell-based
[4] = species on record: Mus musculus; assay: Inhibition of RhoGEF in mouse NIH/3T3 cells assessed as inhibition of 10% calf serum-induced RhoA-GTP formation by measuring reduction in RhoA-GTP level at 5 uM in presence of 5 uM Rhosin/G04 incubated for 24 hrs by densitometry relative to control; assay type: cell-based
[5] = system: MCF7; assay: Inhibition of RhoGEF in human MCF7 cells derived mammospheres assessed as inhibition of RhoA-mediated phospho-MLC formation at 2.5 uM in presence of 2.5 uM Rhosin/G04 incubated for 24 hrs by densitometry; assay type: cell-based
[6] = species on record: Mus musculus; assay: Inhibition of RhoGEF in mouse NIH/3T3 cells assessed as inhibition of 10% calf serum-induced RhoA-GTP formation by measuring relative RhoA-GTP level at 2.5 uM in presence of 2.5 uM Rhosin/G04 incubated for 24 hrs by densitometry (reference value: 1); assay type: cell-based
[7] = target: T1, RhoGEF 1/Transforming protein RhoA (Homo sapiens) (UniProt P61586+Q92888); assay: (§1) Binding affinity to human LARG (765 to 1138 residues) DH-PH module expressed in mouse NIH/3T3 cells assessed as reduction in LARG binding to human full length RhoA (1 to 193 residues) by measuring relative LARG binding level at 30 uM pull-down assay (reference value: 1 No unit); assay type: cell-based
[8] = target: T1, RhoGEF 1/Transforming protein RhoA (Homo sapiens); assay: Inhibition of GFP-tagged human p115 RhoGEF DH-PH module expressed in mouse NIH/3T3 cells assessed as reduction in human full length RhoA (1 to 193 residues) interaction with p115 RhoGEF at 30 to 50 uM incubated for 1 hr by Western blot analysis based GST-RhoA pull-down assay; assay type: cell-based
[9] = species on record: Mus musculus; assay: Inhibition of RhoGEF-mediated RhoA signaling in mouse NIH/3T3 cells assessed as inhibition of SDF1a-induced phospho-MLC formation at 10 to 30 uM incubated for 24 hrs by densitometry; assay type: cell-based
[10] = system: MCF7; assay: Inhibition of RhoGEF in human MCF7 cells derived mammospheres assessed as inhibition of 10% calf serum-induced RhoA-GTP formation by measuring relative RhoA-GTP level incubated for 24 hrs by densitometry (reference value: 1); assay type: cell-based
[11] = species on record: Mus musculus; assay: Inhibition of RhoGEF in mouse NIH/3T3 cells assessed as inhibition of 10% calf serum-induced RhoA-GTP formation incubated for 24 hrs by densitometry; assay type: cell-based
[12] = species on record: Mus musculus; assay: Inhibition of RhoGEF in mouse NIH/3T3 cells assessed as inhibition of 10% calf serum-induced Cdc42-GTP formation by measuring Cdc42-GTP level at 30 uM incubated for 24 hrs by densitometry relative to control (reference value: 3.25); assay type: cell-based
[13] = target: T1, RhoGEF 1/Transforming protein RhoA (Homo sapiens); assay: as §1, with “15” for “30”, “uM in presence of 15 uM Rhosin/G04” for “uM”; assay type: cell-based
[14] = target: Rho GTPase-activating protein 35/Transforming protein RhoA (Homo sapiens) (UniProt P61586+Q9NRY4); assay: Inhibition of human p190 expressed in mouse NIH/3T3 cells assessed as reduction in human full length RhoA (1 to 193 residues) interaction with p190 at 50 to 100 uM incubated for 1 hr by Western blot analysis based His-RhoA pull-down assay; assay type: cell-based
[15] = target: A-kinase anchor protein 13/Transforming protein RhoA (Homo sapiens) (UniProt P61586+Q12802); assay: Inhibition of FLAG-tagged human LBC RhoGEF DH-PH module expressed in mouse NIH/3T3 cells assessed as reduction in human full length RhoA (1 to 193 residues) interaction with LBC RhoGEF at 10 to 50 uM incubated for 1 hr by Western blot analysis based His-RhoA pull-down assay; assay type: cell-based
[16] = species on record: Mus musculus; assay: Inhibition of RhoGEF in mouse NIH/3T3 cells assessed as inhibition of 10% calf serum-induced Cdc42-GTP formation by measuring relative Cdc42-GTP level at 50 uM in presence of 50 uM Rhosin/G04 incubated for 24 hrs by densitometry (reference value: 1); assay type: cell-based
[17] = target: T1, RhoGEF 1/Transforming protein RhoA (Homo sapiens); assay: Binding affinity to human LARG (765 to 1138 residues) DH-PH module expressed in mouse NIH/3T3 cells assessed as reduction in LARG binding to human full length RhoA (1 to 193 residues) by measuring relative LARG binding level at 5 uM pull-down assay (reference value: 1 No unit); assay type: cell-based
[18] = target: Proto-oncogene DBL/Transforming protein RhoA (Homo sapiens) (UniProt P61586+P10911); assay: Inhibition of GST-tagged human DBL RhoGEF DH-PH module expressed in mouse NIH/3T3 cells assessed as reduction in human full length RhoA (1 to 193 residues) interaction with DBL RhoGEF at 10 to 50 uM incubated for 1 hr by Western blot analysis based His-RhoA pull-down assay; assay type: cell-based
[19] = system: Transforming protein RhoA (Homo sapiens), P61586 [Q63L]; assay: Inhibition of constitutively active RhoA Q63L mutant (unknown origin) expressed in mouse NIH/3T3 cells assessed as reduction in 10% calf serum-induced focal adhesion complex formation at 50 uM by anti-vinculin antibody staining based assay; assay type: cell-based
[20] = target: T1, RhoGEF 1/Transforming protein RhoA (Homo sapiens); assay: Binding affinity to human LARG (765 to 1138 residues) DH-PH module expressed in mouse NIH/3T3 cells assessed as reduction in LARG binding to human full length RhoA (1 to 193 residues) by measuring relative LARG binding level at 50 uM pull-down assay (reference value: 1 No unit); assay type: cell-based
[21] = system: MCF7; assay: Growth inhibition of human MCF7 cells at 5 to 50 uM; assay type: functional, cell-based
[22] = target: CDC42/Intersectin-1 (Homo sapiens) (UniProt P60953+Q15811); assay: Inhibition of GST-tagged human intersectin-1 RhoGEF (1227 to 1571 residues) expressed in mouse NIH/3T3 cells assessed as reduction in human full length Cdc42 (1 to 191 residues) interaction with intersectin-1 RhoGEF at 50 to 200 uM incubated for 1 hr by Western blot analysis based pull-down assay; assay type: cell-based
Sequence of CDC42/Intersectin-1 (Homo sapiens) (P60953 whole entry, looked up, the tested form may be a part): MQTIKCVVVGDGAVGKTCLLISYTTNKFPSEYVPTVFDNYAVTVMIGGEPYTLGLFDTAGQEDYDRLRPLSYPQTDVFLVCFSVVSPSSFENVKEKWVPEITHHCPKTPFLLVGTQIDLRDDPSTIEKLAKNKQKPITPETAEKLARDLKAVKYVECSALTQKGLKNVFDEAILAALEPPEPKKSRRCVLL
Sequence of CDC42/Intersectin-1 (Homo sapiens) (Q15811 whole entry, looked up, the tested form may be a part): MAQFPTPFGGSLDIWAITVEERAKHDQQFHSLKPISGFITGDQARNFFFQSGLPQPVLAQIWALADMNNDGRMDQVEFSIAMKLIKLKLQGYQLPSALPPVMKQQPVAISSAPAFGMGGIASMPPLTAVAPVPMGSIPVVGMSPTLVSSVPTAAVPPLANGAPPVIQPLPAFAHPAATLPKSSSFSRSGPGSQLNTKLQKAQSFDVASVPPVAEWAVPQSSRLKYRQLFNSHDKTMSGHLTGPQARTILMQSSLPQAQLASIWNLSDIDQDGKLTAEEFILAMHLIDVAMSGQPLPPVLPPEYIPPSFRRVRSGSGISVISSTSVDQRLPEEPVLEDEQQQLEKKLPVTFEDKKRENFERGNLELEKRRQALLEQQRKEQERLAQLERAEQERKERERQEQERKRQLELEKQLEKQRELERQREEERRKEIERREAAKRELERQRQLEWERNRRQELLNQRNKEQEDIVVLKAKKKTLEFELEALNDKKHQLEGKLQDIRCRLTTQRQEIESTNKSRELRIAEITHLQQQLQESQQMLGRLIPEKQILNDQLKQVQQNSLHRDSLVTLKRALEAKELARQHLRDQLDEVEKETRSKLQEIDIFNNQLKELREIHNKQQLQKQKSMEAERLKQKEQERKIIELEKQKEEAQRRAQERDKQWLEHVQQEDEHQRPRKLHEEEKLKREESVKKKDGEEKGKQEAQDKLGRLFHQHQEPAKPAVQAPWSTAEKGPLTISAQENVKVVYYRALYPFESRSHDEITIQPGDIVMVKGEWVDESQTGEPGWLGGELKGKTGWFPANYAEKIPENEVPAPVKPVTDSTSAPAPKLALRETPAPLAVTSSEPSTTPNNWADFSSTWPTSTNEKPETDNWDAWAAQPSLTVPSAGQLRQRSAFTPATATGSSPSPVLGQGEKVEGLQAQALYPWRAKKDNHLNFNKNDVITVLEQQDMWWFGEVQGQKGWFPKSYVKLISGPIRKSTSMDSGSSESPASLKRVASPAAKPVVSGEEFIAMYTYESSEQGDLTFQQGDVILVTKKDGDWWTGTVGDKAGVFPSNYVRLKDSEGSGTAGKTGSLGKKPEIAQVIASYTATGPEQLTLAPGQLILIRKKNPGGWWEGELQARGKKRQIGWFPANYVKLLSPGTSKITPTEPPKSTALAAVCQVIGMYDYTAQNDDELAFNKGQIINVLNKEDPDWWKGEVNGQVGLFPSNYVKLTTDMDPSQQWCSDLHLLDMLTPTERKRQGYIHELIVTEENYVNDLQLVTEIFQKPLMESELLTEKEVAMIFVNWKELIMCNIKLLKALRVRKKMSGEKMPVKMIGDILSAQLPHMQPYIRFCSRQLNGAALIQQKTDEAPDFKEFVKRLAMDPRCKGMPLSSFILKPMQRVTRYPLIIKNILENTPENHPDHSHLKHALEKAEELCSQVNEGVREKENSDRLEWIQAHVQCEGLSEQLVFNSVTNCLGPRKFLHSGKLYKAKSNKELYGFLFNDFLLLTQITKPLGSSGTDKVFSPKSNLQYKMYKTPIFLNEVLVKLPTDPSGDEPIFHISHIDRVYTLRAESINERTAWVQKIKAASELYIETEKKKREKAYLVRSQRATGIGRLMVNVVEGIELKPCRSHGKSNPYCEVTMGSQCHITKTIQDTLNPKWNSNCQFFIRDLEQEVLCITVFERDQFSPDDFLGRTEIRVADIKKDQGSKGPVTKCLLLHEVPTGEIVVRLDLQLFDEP

Sequence of Transforming protein RhoA (Homo sapiens), P61586 [Q63L] (P61586 whole entry Q63L, the tested form may be a part): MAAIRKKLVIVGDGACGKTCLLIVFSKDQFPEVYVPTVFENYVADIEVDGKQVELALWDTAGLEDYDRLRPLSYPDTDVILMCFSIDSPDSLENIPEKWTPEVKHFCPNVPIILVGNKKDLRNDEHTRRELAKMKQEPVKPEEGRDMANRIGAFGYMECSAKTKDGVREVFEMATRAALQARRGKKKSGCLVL

Structure (SMILES): Cc1cccc(COc2cccc(/C=C3\C(=O)NN(c4ccccc4)C3=O)c2)c1
- inhibition [1]: Active
- inhibition [2]: 80%
- fold change (FC) [3]: 0.25
- inhibition [4]: 80%
- inhibition [5]: 70%
- fold change (FC) [6]: 1.26
- fold change (FC) [7]: 0.57
- inhibition [8]: Active
- inhibition [9]: Active
- inhibition [10]: Dose-dependent effect
- inhibition [11]: Dose-dependent effect
- fold change (FC) [12]: 2.11
- fold change (FC) [13]: 0.03
- inhibition [14]: inactive
- inhibition [15]: inactive
- fold change (FC) [16]: 1.27
- fold change (FC) [17]: 0.73
- inhibition [18]: inactive
- inhibition [19]: inactive
- fold change (FC) [20]: 0.19
- growth inhibition (GI) [21]: Active
- inhibition [22]: inactive
